In this experiment the test system is day 7 skin wound. In words: In vivo playoff of custom-made phage library with microdialysis recovery and HTS in rat skin wound model. Conditions: for Liver Count: HTS reads in liver after 1 h circulation and perfusion; for Wound without probe Count: HTS reads in wound tissue after 1 h circulation and perfusion; for Normal skin microdialysate Count / Wound microdialysate Count: HTS reads; for Normal skin microdialysate Count: probe under normal skin; for Normal skin microdialysate Count / Wound microdialysate Count / Wound microdialysate %: dialysate collected 1 h; for Wound microdialysate Count / Wound microdialysate %: rat; for Wound microdialysate Count: i.v. tail vein, 3-MDa probe under day 7 wound; for Liver %: share of HTS reads in liver after 1 h circulation and perfusion; for Wound without probe %: share of HTS reads in wound tissue after 1 h circulation and perfusion; for Wound microdialysate %: share of HTS reads, i.v. As for the experimental part:
We next tested the applicability of the microdialysis-based system for extravascular phage recovery in the rat wound model. In the initial proof-of-concept studies, we used an in vivo “playoff” approach that allows parallel auditioning of the performance of peptide phages in low-complexity mixtures ([Pleiko et al, 2021]). Wound-bearing rats were dosed with a pool of phages displaying peptides known to home to angiogenic vessels and penetrate tissues, CAR (amino acid sequence CARSKNKDC) and iRGD (CRGDKGPDC). The CAR peptide uses a heparan sulfate proteoglycan (syndecan-4)–dependent pathway for the wound homing and penetration ([Järvinen & Ruoslahti, 2007], [2010]; [Maldonado et al, 2023]), whereas iRGD first homes to αv integrins in angiogenic vasculature followed by proteolytic cleavage of the peptide and binging to neuropilin-1, which activates a trans-tissue transport pathway, the CendR pathway ([Sugahara et al, 2009], [2010]; [Teesalu et al, 2009]). […] Peptides lacking tissue-penetrating properties were included as controls. The CRK (CRKDKC) peptide homes to angiogenic blood vessels, but remains bound to the blood vessels ([Järvinen & Ruoslahti, 2007]; [Agemy et al, 2010]). The test pool also included peptide phage clones identified during an in vivo phage display screen for peptides homing to skin wounds but not selected for further analysis at that time ([Järvinen & Ruoslahti, 2007]). As negative controls, we included phages from a naïve peptide phage library that display random peptides.
Microdialysis probes with 3-MDa cutoff were implanted under the center of a day 7 skin wound (peak of angiogenesis) in rats, or under normal skin (Fig S2). Care was taken not to rupture blood vessels during the probe insertion, and a proper probe location was confirmed at the end of the experiment. After insertion, the microdialysis device was run for 45 min to allow the local flow inside the catheter to be established (manufacturer’s recommendation) ([Joukhadar & Müller, 2005]; [Chaurasia et al, 2007]), followed by intravenous injection of the phage cocktail, and sampling of wound and control dialysates for 60 min. Subsequently, the animals were perfused to remove free phages, and wounds and control organs were collected for further analysis. […] No phages (including CAR and iRGD phages) were detected in the dialysates placed in the intact normal skin (Table 1).
The custom-made phage library for the in vivo validation was cloned on T7 415-1 backbone, grown in BL21 E. coli strain, and filter-sterilized. The phages were either cloned as described previously or picked randomly from a phage library ([Järvinen & Ruoslahti, 2007]; [Teesalu et al, 2009]; [Pemmari et al, 2020a]). Each phage clone was sequenced. The custom-made library was made by mixing an equal amount of each phage (titer 5 × 10^9).
For the in vivo microdialysis, CMA 402 Syringe Pump with Hamilton syringes was used to push and the Harvard P70 peristaltic pump (Harvard Apparatus) to pull the CMA perfusion fluid (CMA Microdialysis AB) and dialysate. Each of the CMA 402 two outputs was connected to the inlet spike of the CMA 12 custom-made 3-MDa probe (CMA Microdialysis AB) via CMA FEP tubing (CMA Microdialysis AB), and the outlet spike of the CMA 12 probe was further connected to Harvard P70 peristaltic pump and further to CMA Probe Shaft Clip (CMA Microdialysis AB) via CMA connector tubing (CMA Microdialysis AB). From the CMA Probe Shaft Clip, the dialysate was pumped into CMA sample tubes (CMA Microdialysis AB). Harvard 0.19-mm-diameter tubing (Harvard Apparatus) and Harvard 3 collar 1.52-mm tubing (Harvard Apparatus) were used with the Harvard P70 peristaltic pump. In addition, CMA tubing adaptors (CMA Microdialysis AB) were used for connecting tubes to syringes and probes. The system was flushed with 70% ethanol before any use.
Male Wistar rats were used for the in vivo validation experiment and the library screen. The rats were 27 wk old and weighed 490 g. […]

Turning to “CAELNDGLC [T7 phage clone of the custom-made library]”, the “Liver Count” value is 1,851, the “Wound without probe Count” value was 1,082, the “Normal skin microdialysate Count” value was determined as 0 and the “Wound microdialysate Count” value is 0. The Liver % amounted to 0.70%, the “Wound without probe %” value worked out at 4.98% and the Wound microdialysate % is listed as 0%.
Take “CARSKNKDC [CARSKNKDC (CAR), T7 phage clone displaying known wound-homing, tissue-penetrating peptide CAR]”: the “Liver Count” value is recorded as 29,894, the “Wound without probe Count” value was 1,614, the “Normal skin microdialysate Count” value turned out to be 0 and the “Wound microdialysate Count” value was 17,713. Besides, the Liver % was 11.34%, the “Wound without probe %” value was 7.43% and the Wound microdialysate % was found to be 94.74%.
For “CERESTKIC [T7 phage clone of the custom-made library]”, the “Liver Count” value was 93,283, the “Wound without probe Count” value is listed as 3,133, the “Normal skin microdialysate Count” value is 0 and the “Wound microdialysate Count” value turned out to be 0. Also, the Liver % is reported as 35.39%, the “Wound without probe %” value came to 14.42% and the Wound microdialysate % was determined as 0%.
For “CKSVKNREC [T7 phage clone of the custom-made library]”, the “Liver Count” value is 108,554, the “Wound without probe Count” value is 14,429, the “Normal skin microdialysate Count” value is reported as 2,473 and the “Wound microdialysate Count” value was 0. For the same substance, the Liver % is reported as 41.18%, the “Wound without probe %” value amounted to 66.39% and the Wound microdialysate % worked out at 0%.
Consider “CLLGKNNSC [T7 phage clone of the custom-made library]”, for which the “Liver Count” value worked out at 785, the “Wound without probe Count” value is on record as 0, the “Normal skin microdialysate Count” value came to 0 and the “Wound microdialysate Count” value is listed as 0. Besides, the Liver % is 0.30%, the “Wound without probe %” value was determined as 0% and the Wound microdialysate % is 0%.
With “CNGSALPVC [T7 phage clone of the custom-made library]”, the “Liver Count” value is on record as 3,300, the “Wound without probe Count” value is on record as 0, the “Normal skin microdialysate Count” value turned out to be 0 and the “Wound microdialysate Count” value worked out at 0. Further, the Liver % was 1.25%, the “Wound without probe %” value stood at 0% and the Wound microdialysate % stood at 0%.
Turning to “CRGDKGPDC [CRGDKGPDC (iRGD), T7 phage clone displaying tissue-penetrating homing peptide iRGD]”, the “Liver Count” value is recorded as 8,709, the “Wound without probe Count” value is reported as 1,172, the “Normal skin microdialysate Count” value came out at 0 and the “Wound microdialysate Count” value is 984. Also, the Liver % is 3.30%, the “Wound without probe %” value was 5.39% and the Wound microdialysate % was determined as 5.26%.
“CRKDKC [CRKDKC (CRK), T7 phage clone displaying CRK peptide, homes to angiogenic vessels, lacks tissue penetration]”: the “Liver Count” value is listed as 17,235, the “Wound without probe Count” value amounted to 303, the “Normal skin microdialysate Count” value is recorded as 0 and the “Wound microdialysate Count” value was 0. Also, the Liver % turned out to be 6.54%, the “Wound without probe %” value was 1.39% and the Wound microdialysate % amounted to 0%.

Values taken from PMC11814485, “Screening of homing and tissue-penetrating peptides by microdialysis and in vivo phage display” (Life Science Alliance, 2025).
